In patent US10189862B2, “Phenothiazine-pyridine compounds and uses thereof” (The Chinese University of Hong Kong, priority 2016, dated 2019):
pIC50: −log10 of the molar value. Read-outs that look alike come from different tables or passages of the source.

Experiments:
[1] = UV-Visible and fluorescence spectrometry; type: physicochemical; conditions: for λmax(nm)in EtOH: UV-Vis absorption maximum in EtOH; for Log ε: UV-Vis in EtOH; for λEm (nm): fluorescence emission, excited at 610 nm
Experimental: (§1) All of the new prepared phenothiazine-pyridine compounds are deep blue solid, the basic physiochemical properties are measured by UV-Visible and fluorescence spectrometry. […] The maximum absorption is about 650 nm in ethanol, and they are varied based on the compound structure. The fluorescence emission is about 680 nm when excited at 610 nm. All of these compounds have relatively high quantum yield, they are promising diagnostic and imaging agents. The lipophilicity is determined by the partition coefficient (log P), which can be obtained by measuring the UV-Vis absorption of the compound in phosphate buffer saline (PBS) before and after the partition equilibrium between n-octanol and PBS solution, and then calculated following the equation of: Log p=Log [(Abefore/Aafter)−1]. Wherein Abefore and Aafter are the absorption values in PBS solution before and after partition.

[2] = Partition coefficient (log P) between n-octanol and PBS by UV-Vis absorption; type: physicochemical
Experimental: as §1

[3] = test system: normal fibroblast WI38 cells; assay: Dark toxicity, MTT assay; type: cell-based; conditions: Homo sapiens, read-out: IC50 dark toxicity
Experimental: (§2) Cell lines and culture conditions: A549, HT29, MCF-7, MDA-MB-231 cell lines were maintained in RPMI1640 supplemented with fetal bovine serum (10%) and penicillin-streptomycin solution (1%), and WI38 cells were maintained in DMEM supplemented with fetal bovine serum (10%) and penicillin-streptomycin solution (1%). Approximately 1×10^4 (for A549, HT29, MCF-7, MDA-MB-231) or 1.5×10^4 (for WI38) cells per well were seeded in 96-well plate and incubated overnight light at 37° C. in a humidified atmosphere with 5% CO2.
(§3) Dark toxicity: Cells were incubated with different concentrations of photosensitive drug for 24 h in dark, and the cell viabilities were determined by MTT assay
The IC50 values (50% inhibitory concentration) of the prepared phenothiazine-pyridine compounds 8, 14, 15, 16, 17, 18, 19, 20, 21, 22, 23, and 24 to normal fibroblast cell line WI38 were measured by MTT assay.

[4] = test system: HT29 cell line; assay: Photocytotoxicity (PDT), MTT assay; type: cell-based; conditions: Homo sapiens, HT-29, light or radiation study, read-out: IC50 PDT
Experimental: as §2
(§4) Photocytotoxicity: Cells were incubated with different concentrations of photosensitive drug for 1 h in the dark, then the medium in the well was sucked by a syringe, and washed by PBS. Then a solution of new medium was added, and illuminated by light. After irradiation, the cells were incubated under dark at 37° C. for another 24 h, and the cell viabilities were determined by MTT assay.

[5] = test system: A549 cell line; assay: Photocytotoxicity (PDT), MTT assay; type: cell-based; conditions: Homo sapiens, read-out: IC50 PDT
Experimental: as §2, §4

[6] = test system: MCF7 cell line; assay: Photocytotoxicity (PDT), MTT assay; type: cell-based; conditions: Homo sapiens, read-out: IC50 PDT
Experimental: as §2, §4

[7] = test system: HT29 cell line; assay: Dark toxicity, MTT assay; type: cell-based; conditions: Homo sapiens, read-out: IC50 DK
Experimental: as §2, §3

[8] = test system: A549 cell line; assay: Dark toxicity, MTT assay; type: cell-based; conditions: Homo sapiens, read-out: IC50 DK
Experimental: as §2, §3

[9] = test system: MCF7 cell line; assay: Dark toxicity, MTT assay; type: cell-based; conditions: Homo sapiens, read-out: IC50 DK
Experimental: as §2, §3

[10] = test system: S. aureus; assay: Photodynamic inactivation of bacteria, CFU count; type: cell-based, Staphylococcus aureus
Experimental: (§5) Bacterial growth and culture: Gram-positive S. aureus or Gram-negative E. coli were grown on trypticase soy agar (TSA) for 24 h, then a colony was transferred into tryptica soy broth (TSB) and grown at 37° C. overnight at a 200 rpm speeds of shaking-up using a shaker incubator. The nutrient medium was centrifuged for 5 min at 8000 rpm and diluted by sterile 0.85% saline (pH 7.5) to concentrations of 10^8 CFU/ml, which was used for further incubation with photosensitizers in the following experiments.
(§6) Photodynamic inactivation of bacteria: Bacterial suspensions (2×10^8 CFU/ml) were co-incubated with different concentrations of the photosensitizer for 10 min at 37° C., and then centrifuged, washed once with normal saline and resuspended in PBS saline. Aliquots of this suspension were placed into 24-well flat bottom plate and illuminated with laser light. After illumination, 100 uL of cell suspension were spread on the TSA in 10-fold serial dilutions and colony forming unit (CFU) was counted after incubation for 24 h at 37° C.

[11] = test system: S. aureus; assay: Dark toxicity of photosensitizers on bacteria, CFU count; type: cell-based, Staphylococcus aureus; conditions: absence of light, 6 h
Experimental: as §5
(§7) Dark toxicities of the photosensitizers on bacteria: Bacterial suspensions were incubated with photosensitizers at various concentrations at 37° C. in the dark for 6 h. After that, 100 uL of cell suspension were spread on the TSA in 10-fold serial dilutions. Colony forming unit (CFU) was counted after incubation for 24 h at 37° C.

[12] = test system: E. coli; assay: Photodynamic inactivation of bacteria, CFU count; type: cell-based, Escherichia coli
Experimental: as §5, §6

[13] = test system: E. coli; assay: Dark toxicity of photosensitizers on bacteria, CFU count; type: cell-based, Escherichia coli; conditions: absence of light, 6 h
Experimental: as §5, §7

[14] = test system: MDA-MB-231 cells; assay: Light dosage dependent photocytotoxicity, 635 Laser; type: cell-based; conditions: MDA-MB-231, 635 Laser
Experimental: as §2, §4
[…] After incubation for a further 24 h, 3-(4,5-Dimethylthiazol-2-yl)-2,5-diphenyltetrazolium bromide (MTT) were added and the cells were incubated for another 4 h. The medium were sucked by syringe, and dimethyl sulfoxide (DMSO) was added to fully dissolve the crystals, the optical density (OD) values were measured with a microplate reader, and the data were analyzed by GraphPad Prism 6.

Structure (SMILES) | λmax(nm)in EtOH [1] [nm] | Log ε [1] | λEm (nm) [1] [nm] | logP [2] | pIC50 ([3]; WI-38, 24 h) | dark toxicity [11] | dark toxicity [13] | pIC50 [4] | pIC50 ([5]; A549, light or radiation study) | pIC50 ([6]; MCF7, light or radiation study) | pIC50 ([7]; HT-29, 24 h) | pIC50 ([8]; A549, 24 h) | pIC50 ([9]; MCF7, 24 h) | also measured
CCCN(CCC)c1cc2[s+]c3cc(N(CC)CC)ccc3nc2c2ccc(C)nc12 [Compound 19, 9-(diethylamino)-5-(dipropylamino)-3-methylpyrido[3,2-a]phenothiazin-7-ium chloride] | 675 | 4.67 | 684 | 1.42 | 5.03 | – | – | – | – | – | – | – | – | –
CCCNc1cc2[s+]c3cc(N(CC)CC)ccc3nc2c2ccc(C)nc12.[Cl-] [Compound 14, 9-(diethylamino)-3-methyl-5-(propylamino)pyrido[3,2-a]phenothiazin-7-ium chloride] | 666 | 5.01 | 684 | 1.34 | – | essentially non-toxic | essentially non-toxic | – | – | – | – | – | – | pIC50 ([4]; HT29, 1 h incubation, 630 nm LED light 30 s, 3.2 J/cm^2, 24 h, MTT): 7.41; pIC50 ([5]; light or radiation study, A549, 1 h incubation, 630 nm LED light 30 s, 3.2 J/cm^2, 24 h, MTT): 6.47; pIC50 ([6]; light or radiation study, MCF7, 1 h incubation, 630 nm LED light 30 s, 3.2 J/cm^2, 24 h, MTT): 6.43; pIC50 ([7]; HT-29, HT29, 24 h under dark, MTT): 5.68; pIC50 ([8]; A549, 24 h under dark, MTT): 5.51; pIC50 ([9]; MCF7, 24 h under dark, MTT): 5.72; photocytotoxicity vs light dosage ([10]; 0.5 uM drug): light dosage dependent; eradication ([10]; 0.5 uM, 30 J/cm^2): about 99.9999%; log 10-reduction ([10]; 0.5 uM, 30 J/cm^2): ~6 log 10-reduction; pIC50 ([3]; WI-38, WI38 cells, 24 h under dark, MTT): < 5.00; photocytotoxicity vs light dosage ([12]; 6 uM drug): light dosage dependent; eradication ([12]; 6 uM, 50 J/cm^2): about 99.999%; log 10-reduction ([12]; 6 uM, 50 J/cm^2): ~5 log 10-reduction; photocytotoxicity vs light dosage [14]: light dosage dependent photocytotoxicity
CCN(CC)c1ccc2nc3c(cc(N)c4nc(C)ccc43)[s+]c2c1 [Compound 8, 5-amino-9-(diethylamino)-3-methylpyrido[3,2-a]phenothiazin-7-ium chloride] | 658 | 4.93 | 680 | 0.97 | < 5.00 | essentially non-toxic | essentially non-toxic | 6.68 | 5.74 | 6.30 | 5.34 | 5.19 | 5.96 | –
CCCCCN(CCCCC)c1cc2[s+]c3cc(N(CC)CC)ccc3nc2c2ccc(C)nc12 [Compound 20, 9-(diethylamino)-5-(dipentylamino)-3-methylpyrido[3,2-a]phenothiazin-7-ium chloride] | 676 | 4.89 | 700 | 1.48 | < 5.00 | – | – | – | – | – | – | – | – | –
CCCCN(CCCC)c1ccc2nc3c(cc(NCCC)c4nc(C)ccc43)[s+]c2c1 [Compound 24, 9-(dibutylamino)-3-methyl-5-(propylamino)pyrido[3,2-a]phenothiazin-7-ium chloride] | 654 | 4.86 | 688 | 3.4 | < 5.00 | essentially non-toxic | essentially non-toxic | 7.13 | 7.00 | 7.11 | 6.08 | 6.07 | 6.07 | –
CCCNc1c(I)c2[s+]c3cc(N(CC)CC)ccc3nc2c2ccc(C)nc12 [Compound 23, 9-(diethylamino)-6-iodo-3-methyl-5-(propylamino)pyrido[3,2-a]phenothiazin-7-ium chloride] | 633 | 4.87 | 666 | 1.48 | 5.28 | essentially non-toxic | essentially non-toxic | 7.15 | 6.17 | 6.92 | 5.70 | 5.48 | 6.05 | –
CCN(CC)c1ccc2nc3c(cc(NC)c4nc(C)ccc43)[s+]c2c1 [Compound 18, 9-(diethylamino)-3-methyl-5-(methylamino)pyrido[3,2-a]phenothiazin-7-ium chloride] | 649 | 4.70 | 683 | 1.31 | 5.30 | – | – | – | – | – | – | – | – | –
CCCCCCCCCCNc1cc2[s+]c3cc(N(CC)CC)ccc3nc2c2ccc(C)nc12 [Compound 17, 5-(decylamino)-9-(diethylamino)-3-methylpyrido[3,2-a]phenothiazin-7-ium chloride] | 651 | 4.89 | 684 | 2.49 | 5.15 | – | – | – | – | – | – | – | – | –
CCN(CC)c1ccc2nc3c(cc(NCCCNC)c4nc(C)ccc43)[s+]c2c1 [Compound 22, 9-(diethylamino)-3-methyl-5-(3-(methylamino)propylamino) pyrido[3,2-a]phenothiazin-7-ium chloride] | 658 | 4.81 | 686 | 0.65 | < 5.00 | – | – | 6.29 | 4.92 | 5.51 | 5.02 | 4.70 | 4.88 | –
CCN(CC)c1ccc2nc3c(cc(NCCCN)c4nc(C)ccc43)[s+]c2c1 [Compound 21, 5-(3-aminopropylamino)-9-(diethylamino)-3-methylpyrido[3,2-a]phenothiazin-7-ium chloride] | 668 | 4.82 | 686 | 0.64 | < 5.00 | – | – | – | – | – | – | – | – | –
CCCCCCCNc1cc2[s+]c3cc(N(CC)CC)ccc3nc2c2ccc(C)nc12 [Compound 16, 9-(diethylamino)-5-(heptylamino)-3-methylpyrido[3,2-a]phenothiazin-7-ium chloride] | 651 | 4.89 | 684 | 1.44 | < 5.00 | – | – | – | – | – | – | – | – | –
CCCCCNc1cc2[s+]c3cc(N(CC)CC)ccc3nc2c2ccc(C)nc12 [Compound 15, 9-(diethylamino)-3-methyl-5-(pentylamino)pyrido[3,2-a]phenothiazin-7-ium chloride] | 651 | 4.91 | 684 | 1.4 | < 5.00 | – | – | – | – | – | – | – | – | –
